≈ marks a conversion by molar mass, not a printed value.

What all share (test): Minimal inhibitory concentration test (MIC-Test) of lincomycin, serial dilution in liquid culture
Experiment [1] has as its system ATCC13032/pVWEx1. Format: cell-based. To be noted: Corynebacterium glutamicum; strain ATCC13032/pVWEx1; as lincomycin-hydrochloride; BHI medium with 0.3 mM IPTG, 20 h, 33° C. As for the experimental part: (§1) For this purpose a first well of a microliter plate was filled with 360 μl of BHI medium supplemented with 0.3 mM IPTG and 250 μg/ml lincomycin-hydrochloride. A volume of 180 μl was removed and placed into a second well previously filled with 180 μl BHI medium supplemented with 0.3 mM IPTG. Thus a second well containing BHI medium supplemented with 0.3 mM IPTG and 125 μg/ml lincomycin-hydrochloride was prepared. From said second well 180 ∞l were removed and placed into a third well previously filled with 180 μl BHI medium supplemented with 0.3 mM IPTG. These dilution steps were repeated several times to cover the concentration range mentioned above. Thus wells containing 180 μl of the respective test medium were obtained. A control medium without lincomycin-hydrochloride was included in the test procedure.
(§2) A preculture of the strain to be tested was made in BHI medium (as described under cultivation) supplemented with 250 μg/ml kanamycin in case of plasmid containing strains). The preculture was centrifuged and the cell pellet resuspended in 0.9% (w/v) NaCl solution to give an OD660 of 1.0. A volume of 20 μl of the suspension was used to inoculate the test medium contained in the wells. The micro titer plate was incubated at 300 rpm and 33° C. in an Infors HT Multitron standard incubator shaker from Infors GmbH (Bottmingen, Switzerland). After 20 h the optical densities were measured. The test medium having the lowest concentration of lincomycin-hydrochloride preventing growth of the culture is given as MIC.
(§3) The MIC's of lincomycin for strains ATCC13032/pVWEx1; ATCC13032/pVWEx1_lmrB^ATCC14067; DM1933_ΔlmrB::EcoRV/pVWEx1 and DM1933_ΔlmrB::EcoRV/pVWEx1_lmrB^ATCC14067 constructed in example 8 were determined as described in materials and methods.

Experiment [2] concerns DM1933_ΔlmrB::EcoRV/pVWEx1_lmrB^ATCC14067. Format: cell-based. Particulars: Corynebacterium glutamicum, ATCC14067, 20 h. On the procedure:
as §1, §2, §3

For experiment [3], the system named is ATCC13032/pVWEx1_lmrB^ATCC14067. It counts as cell-based. To be noted: Corynebacterium glutamicum, 20 h. As for the experimental part: as §1, §2, §3
The test system of experiment [4] is DM1933_ΔlmrB::EcoRV/pVWEx1_lmrB^DM1547. Format: cell-based. To be noted: Corynebacterium glutamicum, 20 h. On the procedure:
as §1
A preculture of the strain to be tested was made in BHI medium (as described under cultivation) supplemented with 250 μg/ml kanamycin in case of plasmid containing strains). The preculture was centrifuged and the cell pellet resuspended in 0.9% (w/v) NaCl solution to give an OD660 of 1.0. […] After 20 h the optical densities were measured. […]
(§4) The MIC's of lincomycin for strains DM1933_ΔlmrB::EcoRV/pVWEx1 and DM1933_ΔlmrB::EcoRV/pVWEx1_lmrB^DM1547 constructed in examples 8 and 11 were determined as described in materials and methods.

Experiment [5] has as its system DM1933_ΔlmrB::EcoRV/pVWEx1. It counts as cell-based, Corynebacterium glutamicum. To be noted: 20 h. As for the experimental part: as §1, with “A control medium without lincomycin-hydrochloride was included in the test procedure.” left out
A preculture of the strain to be tested was made in BHI medium (as described under cultivation) supplemented with 250 μg/ml kanamycin in case of plasmid containing strains). […] After 20 h the optical densities were measured. […]
as §3, §4

With `CCC[C@@H]1C[C@@H](C(=O)N[C@@H]([C@H]2O[C@H](SC)[C@H](O)[C@@H](O)[C@H]2O)[C@@H](C)O)N(C)C1` [lincomycin, Lincomycin], the MIC in experiment [1] is 15.6 µg/mL (≈ 38.4 µM); in experiment [2], 62.5 µg/mL (≈ 154 µM); in experiment [3], 125 µg/mL (≈ 307 µM); in experiment [4], 62.5 µg/mL (≈ 154 µM); in experiment [5] (Corynebacterium glutamicum) it was 7.8 µg/mL (≈ 19.2 µM); in experiment [5] (strain DM1933_DlmrB/pVWEx1 (Table 25), as lincomycin-hydrochloride, BHI medium with 0.3 mM IPTG, 33° C.) it was 7.8 µg/mL (≈ 19.2 µM).

These data come from patent publication US20190106721A1, “Method for the fermentative production of L-amino acids” (priority 2017, published 2019).
